The structures appear in SMILES notation. Entries after “also recorded” stand apart in the source; their conditions may differ. Where two headings read alike, the source gives them in different places. Starred links: 1 amine or outer side, 2 acyl side, 3 side chain; linkers in the order of their positions; H or OH if unused. Positions of bridges follow the written chain, without caps; N, C: chain ends. Non-standard residues stand in square brackets, D forms with d. Residues, ends and D or L forms follow the SMILES beside them. Chains are numbered I, II in the order given. Actinocin(9to1) = Cc1c2oc3c(C)ccc(C(=O)[*:1])c3nc-2c(C(=O)[*:2])c(N)c1=O; NMeV = CN[C@H](C(=O)O)C(C)C; Sar = CNCC(=O)O

Data on four compounds can be found in paper PMC2889835 (PLoS ONE, 2010).

One data set has as its system RBV uptake. The data set is classed as cell-based.
The subject of data set [1] is VSV-GFP or SeV-GFP. The data set is classed as cell-based, vesicular stomatitis virus; Sendai virus.
In data set [2] the test system is VSV-GFP. Briefly: microbe, parasite or virus in culture. Conditions: Vesicular stomatitis virus; for IC50: read-out: IC50 VSV-GFP; for IC90: read-out: IC90 VSV-GFP. The data set is classed as cell-based.
Data set [3] has as its system SeV-GFP. Briefly: microbe, parasite or virus in culture. It is filed as cell-based, Sendai virus. Conditions: Respirovirus muris; for IC50: read-out: IC50 SeV-GFP; for IC90: read-out: IC90 SeV-GFP.
Data set [4] deals with VSV-GFP. It is filed as cell-based, vesicular stomatitis virus.
Data set [5] relates to SeV-GFP. It is filed as cell-based, Sendai virus.
Data set [6] has as its system BHK21, BSRT7, HeLa, A549, 4T1, HEp2 and Vero cells.
Another data set has as its system canine distemper virus. Conditions: Vero cells; cited from earlier work.
The test system of data set [7] is BHK21, BSRT7, HeLa, A549, 4T1, HEp2 and Vero cells. Briefly: Cell viability assays (MTT, CellTiter-Glo, trypan blue dye exclusion). Particulars: RBV up to 1000 µM, 24 h, all seven cell lines. (In ATP-based viability assays light output follows the ATP content of the culture.)
The subject of data set [8] is VSV-GFP or SeV-GFP. It is filed as cell-based, vesicular stomatitis virus; Sendai virus. This is another data set of the same source.
In data set [9] the test system is Vero, HepG2, MDCK and other cell lines. Particulars: cited from earlier work.

For the compound `Cc1c2oc3c(C)ccc(C(=O)N[C@@H]4C(=O)N[C@H](C(C)C)C(=O)N5CCC[C@H]5C(=O)N(C)CC(=O)N(C)[C@@H](C(C)C)C(=O)O[C@@H]4C)c3nc-2c(C(=O)N[C@@H]2C(=O)N[C@H](C(C)C)C(=O)N3CCC[C@H]3C(=O)N(C)CC(=O)N(C)[C@@H](C(C)C)C(=O)O[C@@H]2C)c(N)c1=O` [ActD, actinomycin D] (I: T[dV]P[Sar][NMeV] / II: T[dV]P[Sar][NMeV]; ester I:1-I:C, II:1-II:C; linker I:N-II:N via Actinocin(9to1)), the “Effect on RBV uptake” value in the data set on RBV uptake is recorded as “did not inhibit RBV uptake”. In addition, in the data set on VSV-GFP or SeV-GFP [1], the “Effect on viral replication when used alone” value is reported as “somewhat mild effect on viral replication” and the “Neutralizing effect on antiviral activity of RBV” value was “clear neutralizing effect on RBV”.

`O=[N+]([O-])c1ccc(CSc2ncnc3c2ncn3[C@@H]2O[C@H](CO)[C@@H](O)[C@H]2O)cc1` [NBMPR, S-(4-Nitrobenzyl)-6-thioinosine]: the “Effect on RBV uptake” value with RBV uptake is recorded as “RBV uptake was inhibited in most cell lines”.

With `NC(=O)c1ncn([C@@H]2O[C@H](CO)[C@@H](O)[C@H]2O)n1` [RBV, 1-ß-D-ribofuranosyl-1,2,4-triazole-3-carboxamide], the IC50 (in general, the concentration at which inhibition is half-maximal) is 20 µM with VSV-GFP [2] (4T1, 24 h); 190 µM in the data set with VSV-GFP [2] (A549, 24 h); 275 µM in the data set on VSV-GFP [2] (BHK-21, 24 h); 10 µM with VSV-GFP [2] (BSR-T7, 24 h); 70 µM in the data set with VSV-GFP [2] (HEp-2, 24 h); 70 µM in the data set with VSV-GFP [2] (HeLa, 24 h). Moreover, the 50% inhibitory concentration (IC50) in the data set with VSV-GFP [2] (Vero, 24 h) is 2250 µM; in the data set on SeV-GFP [3] (4T1, 48 h), 10 µM; in the data set on SeV-GFP [3] (A549, 48 h), 90 µM; with SeV-GFP [3] (BHK-21, 48 h) it was 190 µM; in the data set with SeV-GFP [3] (BSR-T7, 48 h), 16 µM; in the data set with SeV-GFP [3] (HEp-2, 48 h), 12 µM. The half-maximal inhibitory concentration (IC50) with SeV-GFP [3] (HeLa, 48 h) was 40 µM; with SeV-GFP [3] (Vero, 48 h), 1550 µM; with canine distemper virus, 20 to 50 µM. Also, the IC90 (commonly the point of the concentration-response curve where the effect stands at 90%) in the data set on VSV-GFP [2] (4T1, 24 h) is 60 µM; in the data set on VSV-GFP [2] (A549, 24 h), 610 µM; with VSV-GFP [2] (BHK-21, 24 h), 1100 µM; in the data set on VSV-GFP [2] (BSR-T7, 24 h), 40 µM; in the data set with VSV-GFP [2] (HEp-2, 24 h) it was 310 µM; with VSV-GFP [2] (HeLa, 24 h), 150 µM. Further, the concentration for an effect of 90% (IC90) is over 3000 µM in the data set on VSV-GFP [2] (Vero, 24 h); 18 µM with SeV-GFP [3] (4T1, 48 h); 320 µM in the data set with SeV-GFP [3] (A549, 48 h); 850 µM in the data set with SeV-GFP [3] (BHK-21, 48 h); 40 µM with SeV-GFP [3] (BSR-T7, 48 h); 45 µM in the data set with SeV-GFP [3] (HEp-2, 48 h). The IC90 with SeV-GFP [3] (HeLa, 48 h) was 110 µM; with SeV-GFP [3] (Vero, 48 h), over 3000 µM. The “Effect on VSV replication (GFP expression)” value in the data set on VSV-GFP [4] is recorded as “effectively inhibited VSV”. For the same compound, the “Effect on VSV-driven GFP expression” value in the data set with VSV-GFP [4] was “surprisingly mild effect; also recorded: somewhat intermediate effect”. In the data set with SeV-GFP [5], the “Effect on SeV replication compared with VSV” value is on record as “inhibited SeV replication to a greater degree than VSV”. Besides, the “Long-term accumulation of RBV” value in [6] is reported as “markedly decreased levels of RBV accumulation”. Also, the “Short-term RBV uptake” value in data set [6] is “somewhat similar levels of RBV import”. Moreover, the 80% effect concentration (IC80) – broadly, the concentration needed for an effect of 80% – in the data set on canine distemper virus was 40 to 110 µM. Also, in data set [7], the “Effect on cell viability (cellular toxicity)” value is “did not produce any statistically significant decrease in cell viability; also recorded: did not produce any significant cytotoxicity”.

Turning to `Nc1nc2c(ncn2[C@@H]2O[C@H](CO)[C@@H](O)[C@H]2O)c(=O)[nH]1` [guanosine], in the data set with VSV-GFP or SeV-GFP [8], the “Effect on virus replication when used alone” value is listed as “no significant effect on virus replication” and the “Neutralizing effect on antiviral activity of RBV” value is “clear (almost 100%) neutralizing effect on RBV”. In addition, the “Excess of physiological GTP levels” value in [9] is “at least 4 fold”.
